IC50 data for three compounds are collected here from US7691851B2, “Metalloprotease inhibitors containing a heterocyclic moiety” (Alantos Pharmaceuticals Holding, Inc., priority 2007, dated 2010).

The assay concerns the target T1, MMP-13 (Homo sapiens, UniProt P45452).
T1 construct: 10 μL of a 50 nM stock solution of catalytic domain of MMP-13 enzyme; purchased Invitek (Berlin) 30100812
The assay can be described thus: Assay for determining MMP-13 inhibition (fluorescent substrate). In kind it is biochemical. The conditions noted are these: catalytic domain of MMP-13. The protocol: The inhibiting activity towards different metalloproteases of the heterocyclic metalloprotease inhibiting compounds of the present invention may be measured using any suitable assay known in the art. A standard in vitro assay for measuring the metalloprotease inhibiting activity is described in Examples 1700 to 1704.
The typical assay for MMP-13 activity is carried out in assay buffer comprised of 50 mM Tris, pH 7.5, 150 mM NaCl, 5 mM CaCl2 and 0.05% Brij-35. Different concentrations of tested compounds are prepared in assay buffer in 50 μL aliquots. 10 μL of a 50 nM stock solution of catalytic domain of MMP-13 enzyme (produced by Alantos or commercially available from Invitek (Berlin), Cat.# 30100812) is added to the compound solution. The mixture of enzyme and compound in assay buffer is thoroughly mixed and incubated for 10 min at room temperature. Upon the completion of incubation, the assay is started by addition of 40 μL of a 12.5 μM stock solution of MMP-13 fluorescent substrate (Calbiochem, Cat. No. 444235). The time-dependent increase in fluorescence is measured at the 320 nm excitation and 390 nm emission by automatic plate multireader. The IC50 values are calculated from the initial reaction rates.

Setting [1] is: compounds stated as lower than 100 nM.

On to `Cc1c(C(=O)O)ccc2c1CC[C@@H]2NC(=O)c1cc(C(=O)NCc2ccc3c(c2)NC(=S)CO3)nc2ccnn12` [1/1], for which the IC50 under setting [1] was less than 100 nM.
As to `Cc1c(C(=O)O)ccc2c1CC[C@@H]2NC(=O)c1cc(C(=O)NCc2ccc3c(c2)-n2c(noc2=O)CO3)nc2ccnn12` [Example 1/2], the IC50 (range class, units printed within the value (nM to μM)) fell in the range of 100 to 20000 nM.
Under setting [1], `Cc1c(C(=O)O)ccc2c1CC[C@@H]2NC(=O)c1cc(C(=O)NCc2ccc3c(c2)-n2cnnc2CO3)nc2ccnn12` [Example 1] registered an IC50 of less than 100 nM.

The term IC50 denotes the concentration needed to halve the response being measured. A higher IC50 goes with lower potency.
